Measured values published in US9175077B2, “Nucleic acids encoding biologically active polypeptides derived from a novel early stage pregnancy factor designated maternin (MA)” (NOBEL BIOSCIENCES LLC, priority 1999, dated 2015).
Values joined by “and” are separate entries in the source; they are usually repeats but may differ in a detail not shown here. Identical values can stand only once. “Also recorded” adds a separate entry of the source.

What was measured:
[1] = test system: human bone marrow stem cells; assay: Engraftment of ex vivo expanded hematopoietic progenitor cells in SCID mice
Text: (§1) The inventors also investigated the effect of MA on engraftment of human bone marrow stem cells [CD34^+, CD38″ cells, long term cultures after 4 mos, and stromal free cultures] ex vivo expanded hematopoietic progenitor cells in Rats irradiated [Sprague DAwley, 450 Rad] and immunodeficient mice [SCID or BNX-XID mice].
(§2) Measurement of short-term hematopoietic reconstitution kinetics and long term repopulating ability. Just prior to implantation, SCID, BNX-XID-immunodeficient mice and Sprague Dawley rats were exposed to 450 rad total body γ-irradiation. […] But the SCID and BNX-XID immunodeficient mice were repopulated by the cultured, treated human cells.

human tumor cells = type: cell-based
hCG receptor = target: T1, hCG receptor (Homo sapiens, UniProt P22888); assay: hCG receptor binding
T1 construct: host or cells: unspecified cells
Text: In this regard, unusual β-hCG gene transcripts have been known for several years,^207 and as noted above, among the several related heterodimeric glycoprotein hormones, only β-hCG has multiple genes.

[2] = test system: human carcinoma and sarcoma cells (PC3, KS Y-1); assay: Xenotransplanted human tumors in immunodeficient mice; type: in vivo
Method: In the first set of experiments, MA was tested against tumors formed by xenotransplantation of various human carcinoma and sarcoma cells in immunodeficient mice. […] […] Three different synthetic forms of MA were used: full length (MAS3) and the previously described MAS1 and MAS2 (Panel C).

[3] = test system: human primitive hematopoietic stem cells; assay: Long term cultures (LTC-IC, stroma-free) of CD34+, CD38− cells from human BMMC; type: cell-based
Method: In the human system, a long-term culture-initiating assay (LTC-IC) can be used to detect cells that can generate myeloid clonogenic cells (CFC/colony forming cells) in long-term cultures for a minimum of 5 weeks. Bone marrow stromal was produced by culturing 107 fresh BM-MNC in a T25 flash for at least 2 weeks in 5 mL stromal medium; 12.5% horse [HS] and 12.5% fetal calf serum [FCS]; both from hyclone [Logan, Utah], Iscove's modified Dulbecco's medium [IMDM, GIBCO-BRL], 2-mercaptoethanol [Sigma, st. Louis, Mo.], 10^−6 mol/L hydrocortisone [Sigma] and penicillin/streptomycine.
One or 2 days before co-cultures, bone marrow stroma was irradiated with 15Gy and plated at 7×10^3/cm^2 in 24-well plates to form pre-established stromal layers for the long-term cultures. Limiting dilution was 1 to 1000 CD34+ bone marrow/cord blood cells and equivalent aliquots, i.e., limiting dilutions of the cells grown in long-term cultures stroma-free cultures after 2 to 20 weeks were seeded on top of the irradiated bone marrow stroma in culture medium containing IMDM, 12.5% HS, 12.5% FCS, 2-mercptoethanol, and 10^−6 mon-hydrocortisone for 5 weeks LTC-IC assay period. Non-adherent cells were removed from the cultures, combined with the corresponding trypsinized adherent cells, washed and assayed for colony forming units (CFU-Cs) in methylcellulose medium containing 1.3% methylcellulose (Fluka Chemilka Biochemika, buck\hs, Switzerland), 30% FCS, EPO (3 U/ml), IL-3 (20 ng/ml), G-CSF (20 ng/ml), GM-CSF (20 ng/ml) and KL (c-kit, 50 ng/ml). These cultures were incubated at 37° C. and colonies were scored 2 to 3 weeks later. LTC-IC enumeration was based on the number of CFU-C scored in the limiting assays [LDA] and another technique.
Stroma-free long-term cultures were performed as follows. 2 to 10×10^3 CD34+/CD34^−CD38^− from bone marrow/CB/PBMC cells were cultured in quadrutriplicate flat bottomed 24 well plates in 1 ml to of IMDM supplemented with 10% FCS and the following cytokines: IL-3 (10 ng/ml), IL-6 (10 ng/ml), KL [c-kit 50 ng/ml, FL (50 ng/ml) and TPO (10 U/ml), which added, alone or in combination of two or more factors, to each series of microwells twice a week. The wells were grown at 37° C. and share a number of features with in vivo murine long-term repopulating cells. These include assay for cobblestone areas colony forming cells (CAFC), high proliferative potentials colony-forming cells (HPP-CFC), CFU-GEMM, CFU-B1 (blast colony forming units).

[4] = test system: human bone marrow stem cells; assay: Engraftment of ex vivo expanded hematopoietic progenitor cells in BNX-XID mice
Text: as §1, §2

B16 melanoma = assay: Pro-apoptotic effect on cultured B16 melanoma cells; type: cell-based, mouse; conditions: same dose range as cultured human tumor cells
Method: B16 melanoma and Lewis lung (LL) carcinoma cells were first shown to be susceptible to the pro-apoptotic effects of MA (FIG. 6, Panels C and D) at the same dose range used with cultured human tumor cells. The tumor cells grown in standard culture conditions were used to generate metastatic cancers in pathogen-free 6-8 week old C57/BL mice (Charles River). In one set of experiments, the animals were treated with MAS1 or MAS2 at two doses, 0.1 ug or 1.0 ug either in a pre-treatment protocol (two subcutaneous inoculations 24 and 48 hrs before transplanting the tumor cells).

[5] = LTC stroma free after 3 mos, n = 3

T1 sequence (P22888 27-699): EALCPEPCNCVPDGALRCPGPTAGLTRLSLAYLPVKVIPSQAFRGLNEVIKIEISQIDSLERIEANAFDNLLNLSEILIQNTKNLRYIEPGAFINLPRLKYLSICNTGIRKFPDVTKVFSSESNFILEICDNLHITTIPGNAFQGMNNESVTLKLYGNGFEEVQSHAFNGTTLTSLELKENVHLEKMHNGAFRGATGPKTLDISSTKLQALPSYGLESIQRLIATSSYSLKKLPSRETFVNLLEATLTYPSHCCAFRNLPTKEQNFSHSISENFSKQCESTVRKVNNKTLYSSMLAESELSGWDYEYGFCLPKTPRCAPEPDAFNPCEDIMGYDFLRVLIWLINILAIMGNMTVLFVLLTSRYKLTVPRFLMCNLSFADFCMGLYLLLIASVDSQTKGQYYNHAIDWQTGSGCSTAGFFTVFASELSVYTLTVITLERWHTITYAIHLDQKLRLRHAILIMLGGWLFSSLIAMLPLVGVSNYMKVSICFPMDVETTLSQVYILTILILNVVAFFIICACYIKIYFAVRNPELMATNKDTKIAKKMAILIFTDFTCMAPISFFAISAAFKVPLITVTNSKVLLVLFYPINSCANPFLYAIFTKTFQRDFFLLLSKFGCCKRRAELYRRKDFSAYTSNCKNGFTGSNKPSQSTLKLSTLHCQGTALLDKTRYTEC

“VVCNYRDVRFESIRLPGCPRGVNPVVSYAVALSCQ [MA]” was tested, and the CD4 [1] was 2%, the CD14 [1] was 2% and the CD34 [1] was 38%. For the same sequence, the “effect on HTLV-I induced adult T-cell leukemia” value (human tumor cells) was “no effect”, the “effect on some β-cell lymphomas” value (human tumor cells) was “no effect” and the “binding to the hCG receptor” value (hCG receptor) was “does not bind”. For the same sequence, the tumor regression ([2]; 300-500 ng/day (about 100-200 pmoles) for 2 to 3 weeks) was “complete tumor regression”, the “effect on xenotransplanted tumor (qualitative)” value ([2]; controls at equivalent and higher molar concentrations) was “marked tumor regression; also recorded: KS tumor abolished” and the “inhibition of tumor growth in vivo” value ([2]; mouse, in vivo) was 60-100%. For the same sequence, the “blood vessel formation / angiogenesis” value ([2]; thin sections of the tumors) was “reduction in blood vessel formation”, the BFU-e [3, 5] was 161 ± 8 and the CFU-GM [3, 5] was 198 ± 11. The CFU-Mixed [3, 5] was 13 ± 3, the T-CFC [3, 5] was 199 ± 10 and the “CFU-GM: % of CD14” value ([3]; culture 3) was 27%. For the same sequence, the “CFU-GM: % of CD68” value ([3]; culture 3) was 22%, the “CD34+ cells” value ([3]; culture 3 (LTC stroma free treated with MA)) was 77.71% and the “T colonies Rx MA: CD3+/CD4+” value ([3]; for 1, 2, and 3 (respectively)) was 38% and 28% and 46%. The “T colonies Rx MA: CD3+/CD8+” value ([3]; for 1, 2, and 3 (respectively)) was 32% and 29% and 49%, the CD4 [4] was 3% and the CD14 [4] was 1%. For the same sequence, the CD34 [4] was 37% and the “susceptibility to pro-apoptotic effects” value (B16 melanoma) was “susceptible”.
